Experimental data: patent US9278925B2, “Substituted 3-(biphenyl-3-yl)-4-hydroxy-8-methoxy-1-azaspiro[4.5]dec-3-en-2-one” (BAYER INTELLECTUAL PROPERTY GMBH, priority 2011, dated 2016)
Where two headings read alike, the source gives them in different places.

What was measured:
H460 = assay: Tumour cell proliferation, CellTiter-Glo, 96 h; assay type: cell-based; conditions: 96-hour incubation
Method: (§1) In accordance with the invention, the substances were tested in cell-based assays for the ability of the substances of inhibiting tumour cell proliferation after a 96-hour incubation with the substance. Cell viability was tested using the CellTiter-Glo® luminescent cell viability assay (Promega). The cells were sown at a density of 2000-5000 cells/well (depending on the cell line) in 100 μl growth medium on 96-well microtitre plates. For each cell line examined, cells were sown on a separate plate to determine the luminescence at t=0 hours and t=96 hours. After overnight incubation at 37° C., the luminescence values for the t=0 samples were determined. The dose plates for the t=96 hours points in time were treated with substances diluted with growth medium. The cells were then incubated at 37° C. for 96 hours, and the luminescence values for the t=96 hours samples were then determined. For data analysis, the t=0 values were subtracted from the t=96 hours values for treated and untreated samples. The differences in luminescence in percent between substance-treated samples and control values were used to determine the growth inhibition in percent.
(§2) The substances were tested in the following cell lines which represent the stated indications in an exemplary manner: […]

KM12 = assay: Tumour cell proliferation, CellTiter-Glo, 96 h; assay type: cell-based; conditions: 96-hour incubation
Method: as §1, §2

MCF7 = assay: Tumour cell proliferation, CellTiter-Glo, 96 h; assay type: cell-based; conditions: 96-hour incubation
Method: as §1, §2

PC3 = assay: Tumour cell proliferation, CellTiter-Glo, 96 h; assay type: cell-based; conditions: 96-hour incubation
Method: as §1, §2

[1] = Octanol/water distribution coefficient (logP/D), isocratic HPLC method; assay type: physicochemical; conditions: for chromatographic logP: octanol/water, pH 7.4, pH7.4
Source text: Assay for Determining the Octanol/Water Distribution Coefficient (logP/D): The distribution coefficient octanol/water P or D is a key parameter for estimating membrane penetration and permeability. It is defined as the ratio of the equilibrium concentrations of a substance in the two-phase system octanol/water. [formula] P=partition D=distribution c(octanol)=concentration of the substance in the octanol phase c(water)=concentration of the substance in the aqueous phase It is usually stated in form of the decadic logarithm (logP or logD). logP describes the distribution behaviour of a substance exclusively present in its neutral form. logD describes the distribution behaviour of a substance at a certain pH; depending on the ionisation constant pKa of the substance, some of the substance may be present in ionic form, and some in neutral form. The logP/D of the active compounds was determined using an isocratic HPLC method (HPLC=high performance liquid chromatography) (literature: OECD Guideline for Testing of Chemicals No. 117). The method is based on the correlation of the HPLC retention time of the test substance to that of reference substances with known distribution coefficients. […] The nine reference substances were dissolved individually in methanol. 100 μl each of the stock solutions were added to an HPLC vial and mixed with 300 μl of water. [table] A formamide solution was used to determine the hold-up time. To this end, 7 mg of formamide were dissolved in 10 ml of methanol. 100 μl of this stock solution were mixed with 500 μl of methanol and 200 μl of water. […] [table] [table] Injection Protocol: formamide, references, test substance 1, test substance 2, . . . , formamide, references. Evaluation of the retention times was carried out in a diode array detector (DAD) at 200-400 nm Via the molecular mass, the identity of the test substance was checked using the downstream mass spectrometer. The HPLC run was evaluated using the Waters software Masslynx 4.1. The logP/D values were calculated using the software “POW Determination” (proprietary development).

[2] = Pharmacokinetic parameters in the rat (i.v. and intragastric); assay type: in vivo; conditions: for clearance / Vd / half-life: male, plasma; for clearance: read-out: CLplasma (converted); for Vd: read-out: Vss; for half-life / t½: terminal; for half-life: read-out: t½ (converted); for F: oral bioavailability
Method: Determination of the Pharmacokinetic Parameters of a Test Substance in the Rat and in the Dog For this, the test substances were applied in dissolved form both for intravenous, and for intragastric application, wherein compatible solubilizers such as PEG400 and/or ethanol were used in a compatible amount. […] Administration was as a bolus injection in the male rat and as an infusion in the female dog (15 min) At various time points after the bolus injection, and before and after the 15-minute infusion, blood samples of about 100-150 μl were removed via a catheter either from the jugular vein (rat) or from the saphenous vein (dog). Lithium-heparin was added as anticoagulant to the blood samples and they were stored in a refrigerator until required for further processing. After centrifugation of the samples for 15 min at 3000 rpm, an aliquot of 100 μl was taken from the supernatant (plasma) and was precipitated by adding 400 μl of cold ACN or methanol (absolute). The precipitated samples were frozen-out at […] overnight, then centrifuged again at 3000 rpm for 15 min, before 150 μl of the clear supernatant were removed to determine the concentration. The analysis was effected by means of an Agilent 1200 HPLC system with connected LCMS/MS detection. Calculation of the PK parameters (using PK calculation software, e.g. WinNonLin®): CLplasma: total plasma clearance of the test substance (in 1*kg/h); CLblood: total blood clearance of the test substance (in 1*kg/h), where (CLblood=CLplasma*Cp/Cb); Vss: apparent steady-state distribution volume (in 1/kg); t½: half-life within a specified interval (here: terminal t½, in h); AUCnorm: area under the plasma concentration time profile from time point zero extrapolated to infinity divided by the dose normalized for body weight (in kg*l/h); AUC(0-tn)norm: integrated area under the plasma concentration time profile from time point zero until the last time point at which a plasma concentration was measurable, divided by the dose normalized for body weight (in kg*l/h); Cmax: maximum concentration of the test substance in the plasma (in μg/l); Cmax,norm: maximum concentration of the test substance in the plasma divided by the dose normalized for body weight (in kg/l); Cb/Cp: ratio of the blood to plasma concentration distribution. […] At various time points after administration, blood samples of about 100-150 μl were removed via a catheter either from the jugular vein (rat) or from the saphenous vein (dog). Lithium-heparin was added as anticoagulant to the blood samples and they were stored in a refrigerator until required for further processing. After centrifugation of the samples for 15 min at 3000 rpm, an aliquot of 100 μl was taken from the supernatant (plasma) and was precipitated by adding 400 μl of cold ACN or methanol (absolute). The precipitated samples were frozen-out at −20° C. overnight, then centrifuged at 3000 rpm for 15 min, before 150 μl of the clear supernatant were removed to determine the concentration. The analysis was effected by means of an Agilent 1200 HPLC system with connected LCMS/MS detection. […]

Row | Structure (SMILES) | IC50 (H460; Homo sapiens, NCI-H460) | IC50 (KM12; Homo sapiens, KM12) | IC50 (MCF7; Homo sapiens, MCF7) | IC50 (PC3; Homo sapiens, PC-3) | chromatographic logP [1] | CLblood [2] | clearance ([2]; intravenous) | Vd ([2]; intravenous) | half-life [2] | F [2] | IC50 (H460) | IC50 (KM12) | IC50 (MCF7) | IC50 (PC3) | logP/D pH7.4 [1] | CLplasma [2] | Vss [2] | t½ [2] | clearance ([2]; iv) | Vd ([2]; iv)
1 | COC[C@]1(OC)CC[C@@]2(CC1)NC(=O)C(c1cc(-c3ccc(Cl)c(F)c3)ccc1C)=C2O [Example 1-4, (5r,8r)-3-(4′-Chloro-3′-fluoro-4-methylbiphenyl-3-yl)-4-hydroxy-8-methoxy-8-(methoxymethyl)-1-azaspiro[4.5]dec-3-en-2-one] | 333 nM | 96 nM | 48 nM | 120 nM | 2.38 | 0.183 mL/min/kg | 0.117 mL/min/kg | 0.44 L/kg | 51 h | 83% | – | – | – | – | – | – | – | – | – | –
2 | CO[C@]1(C(F)(F)F)CC[C@]2(CC1)NC(=O)C(c1cc(-c3ccc(Cl)cc3)ccc1C)=C2O [Example 1-1, (5r,8r)-3-(4′-Chloro-4-methylbiphenyl-3-yl)-4-hydroxy-8-methoxy-8-(trifluoromethyl)-1-azaspiro[4.5]dec-3-en-2-one] | 88 nM | 21 nM | 26 nM | 29 nM | 2.44 | 0.183 mL/min/kg | 0.1 mL/min/kg | 0.85 L/kg | 103 h | 163% | – | – | – | – | – | – | – | – | – | –
3 | COC[C@H]1CC[C@]2(CC1)NC(=O)C(c1cc(-c3ccc(Cl)cc3)ccc1C)=C2O [V.3-b, (5s,8s)-3-(4′-Chloro-4-methylbiphenyl-3-yl)-4-hydroxy-8-(methoxymethyl)-1-azaspiro[4.5]dec-3-en-2-one] | 67 nM | 31 nM | 23 nM | 36 nM | 2.5 | – | – | – | – | – | – | – | – | – | – | – | – | – | – | –
4 | CO[C@]1(C)CC[C@]2(CC1)NC(=O)C(c1cc(-c3ccc(Cl)cc3)ccc1C)=C2O [Example V.1-a, (5r,8r)-3-(4′-Chloro-4-methylbiphenyl-3-yl)-4-hydroxy-8-methoxy-8-methyl-1-azaspiro[4.5]dec-3-en-2-one] | – | – | – | – | – | – | – | – | – | 83% | 79 nM | 38 nM | 23 nM | 35 nM | 2.51 | 0.15 mL/min/kg | 0.3 L/kg | 28 h | – | –
5 | Cc1ccc(-c2ccc(Cl)c(F)c2)cc1C1=C(O)[C@]2(CC[C@](O)(C(F)(F)F)CC2)NC1=O [V.2-c, (5r,8r)-3-(4′-Chloro-3′-fluoro-4-methylbiphenyl-3-yl)-4,8-dihydroxy-8-(trifluoromethyl)-1-azaspiro[4.5]dec-3-en-2-one] | 2120 nM | 2370 nM | – | 767 nM | 1.3 | – | – | – | – | – | – | – | – | – | – | – | – | – | – | –
6 | Cc1ccc(-c2ccc(Cl)cc2)cc1C1=C(O)[C@]2(CC[C@](O)(C(F)(F)F)CC2)NC1=O [V.1-c, (5r,8r)-3-(4′-Chloro-4-methylbiphenyl-3-yl)-4,8-dihydroxy-8-(trifluoromethyl)-1-azaspiro[4.5]dec-3-en-2-one] | 1870 nM | 827 nM | – | 275 nM | 1.6 | – | – | – | – | – | – | – | – | – | – | – | – | – | – | –
7 | CO[C@]1(C(F)(F)F)CC[C@]2(CC1)NC(=O)C(c1cc(-c3ccc(Cl)c(F)c3)ccc1C)=C2O [Example 1-2, (5r,8r)-3-(4′-Chloro-3′-fluoro-4-methylbiphenyl-3-yl)-4-hydroxy-8-methoxy-8-(trifluoromethyl)-1-azaspiro[4.5]dec-3-en-2-one] | 104 nM | 14 nM | < 14 nM | 22 nM | 2.45 | 0.65 mL/min/kg | 0.483 mL/min/kg | 2.4 L/kg | 65 h | 131% | – | – | – | – | – | – | – | – | – | –
8 | CO[C@]1(C)CC[C@]2(CC1)NC(=O)C(c1cc(-c3ccc(Cl)c(F)c3)ccc1C)=C2O [Example V.2-a, (5r,8r)-3-(4′-Chloro-3′-fluoro-4-methylbiphenyl-3-yl)-4-hydroxy-8-methoxy-8-methyl-1-azaspiro[4.5]dec-3-en-2-one] | – | – | – | – | – | – | – | – | – | 71% | 82 nM | 73 nM | 32 nM | 46 nM | 2.52 | 0.217 mL/min/kg | 0.51 L/kg | 33 h | – | –
9 | COC[C@H]1CC[C@]2(CC1)NC(=O)C(c1cc(-c3ccc(Cl)c(F)c3)ccc1C)=C2O [V.4-b, (5s,8s)-3-(4′-Chloro-3′-fluoro-4-methylbiphenyl-3-yl)-4-hydroxy-8-(methoxymethyl)-1-azaspiro[4.5]dec-3-en-2-one] | 43 nM | 35 nM | 20 nM | 30 nM | 2.57 | – | – | – | – | – | – | – | – | – | – | – | – | – | – | –
10 | COC[C@]1(OC)CC[C@@]2(CC1)NC(=O)C(c1cc(-c3ccc(Cl)cc3)ccc1C)=C2O [Example 1-3, (5r,8r)-3-(4′-Chloro-4-methylbiphenyl-3-yl)-4-hydroxy-8-methoxy-8-(methoxymethyl)-1-azaspiro[4.5]dec-3-en-2-one] | 365 nM | 222 nM | 45 nM | 194 nM | 2.3 | 0.083 mL/min/kg | – | – | 79 h | 68% | – | – | – | – | – | – | – | – | 0.0333 mL/min/kg | 0.29 L/kg
